From US9693556B2, “Herbicidal pyridazinone derivatives” (SYNGENTA LIMITED, priority 2011, dated 2017)

How the values were obtained:
Type in all cases: in vivo
[1] = test system: Solanum nigrum (SOLNI); assay: Pre-emergence herbicidal glasshouse test on Solanum nigrum; conditions: pre-emergence; 1000 g/h; evaluated after 13 days
Procedure: (§1) Seeds of a variety of test species are sown in standard soil in pots (Alopecurus myosuroides (ALOMY), Setaria faberi (SETFA), Echinochloa crus-galli (ECHCG), Solanum nigrum (SOLNI), Amaranthus retoflexus (AMARE), Ipomoea hederacea (IPOHE)). After cultivation for one day (pre-emergence) or after 8 days cultivation (post-emergence) under controlled conditions in a glasshouse (at 24/16° C., day/night; 14 hours light; 65% humidity), the plants are sprayed with an aqueous spray solution derived from the formulation of the technical active ingredient in acetone/water (50:50) solution containing 0.5% Tween 20 (polyoxyethelyene sorbitan monolaurate, CAS RN 9005-64-5). Compounds are applied at 1000 g/h. The test plants are then grown in a glasshouse under controlled conditions in a glasshouse (at 24/16° C., day/night; 14 hours light; 65% humidity) and watered twice daily. After 13 days for pre and post-emergence, the test is evaluated for the percentage herbicidal damage caused to the plant. The biological activities are shown in the following table on a five point scale (5=80-100% damage; 4=60-79% damage; 3=40-59% damage; 2=20-39% damage; 1=0-19% damage).

[2] = test system: Solanum nigrum (SOLNI); assay: Post-emergence herbicidal glasshouse test on Solanum nigrum; conditions: post-emergence; 1000 g/h; evaluated after 13 days
Procedure: as §1

[3] = test system: Echinochloa crus-galli (ECHCG); assay: Post-emergence herbicidal glasshouse test on Echinochloa crus-galli; conditions: post-emergence; 1000 g/h; evaluated after 13 days
Procedure: as §1

[4] = test system: Ipomoea hederacea (IPOHE); assay: Post-emergence herbicidal glasshouse test on Ipomoea hederacea; conditions: post-emergence; 1000 g/h; evaluated after 13 days
Procedure: as §1

[5] = test system: Setaria faberi (SETFA); assay: Pre-emergence herbicidal glasshouse test on Setaria faberi; conditions: pre-emergence; 1000 g/h; evaluated after 13 days
Procedure: as §1

[6] = test system: Alopecurus myosuroides (ALOMY); assay: Pre-emergence herbicidal glasshouse test on Alopecurus myosuroides; conditions: pre-emergence; 1000 g/h; evaluated after 13 days
Procedure: as §1

[7] = test system: Alopecurus myosuroides (ALOMY); assay: Post-emergence herbicidal glasshouse test on Alopecurus myosuroides; conditions: post-emergence; 1000 g/h; evaluated after 13 days
Procedure: as §1

[8] = test system: Setaria faberi (SETFA); assay: Post-emergence herbicidal glasshouse test on Setaria faberi; conditions: post-emergence; 1000 g/h; evaluated after 13 days
Procedure: as §1

[9] = test system: Ipomoea hederacea (IPOHE); assay: Pre-emergence herbicidal glasshouse test on Ipomoea hederacea; conditions: pre-emergence; 1000 g/h; evaluated after 13 days
Procedure: as §1

[10] = test system: Echinochloa crus-galli (ECHCG); assay: Pre-emergence herbicidal glasshouse test on Echinochloa crus-galli; conditions: pre-emergence; 1000 g/h; evaluated after 13 days
Procedure: as §1

[11] = test system: Amaranthus retoflexus (AMARE); assay: Post-emergence herbicidal glasshouse test on Amaranthus retoflexus; conditions: post-emergence; 1000 g/h; evaluated after 13 days
Procedure: as §1

[12] = test system: Amaranthus retoflexus (AMARE); assay: Pre-emergence herbicidal glasshouse test on Amaranthus retoflexus; conditions: pre-emergence; 1000 g/h; evaluated after 13 days
Procedure: as §1

SMILES: O=c1c(O)c(-c2ccc(C(F)(F)F)cc2C(F)(F)F)cnn1C(F)F [Compound 1.006]
- PRE Application SOLNI herbicidal damage (five point scale) [1]: 3 (3=40-59% damage)
- POST Application SOLNI herbicidal damage (five point scale) [2]: 5 (5=80-100% damage)
- POST Application ECHCG herbicidal damage (five point scale) [3]: 1 (1=0-19% damage)
- POST Application IPOHE herbicidal damage (five point scale) [4]: 5 (5=80-100% damage)
- PRE Application SETFA herbicidal damage (five point scale) [5]: 1 (1=0-19% damage)
- PRE Application ALOMY herbicidal damage (five point scale) [6]: 2 (2=20-39% damage)
- POST Application ALOMY herbicidal damage (five point scale) [7]: 1 (1=0-19% damage)
- POST Application SETFA herbicidal damage (five point scale) [8]: 1 (1=0-19% damage)
- PRE Application IPOHE herbicidal damage (five point scale) [9]: 3 (3=40-59% damage)
- PRE Application ECHCG herbicidal damage (five point scale) [10]: 2 (2=20-39% damage)
- POST Application AMARE herbicidal damage (five point scale) [11]: 5 (5=80-100% damage)
- PRE Application AMARE herbicidal damage (five point scale) [12]: 5 (5=80-100% damage)

SMILES: Cc1c(-c2cnn(C3CCCC3)c(=O)c2O)ccc(S(C)(=O)=O)c1C1=NOCC1 [Compound 1.007]
- PRE Application SOLNI herbicidal damage (five point scale) [1]: 2 (2=20-39% damage)
- POST Application SOLNI herbicidal damage (five point scale) [2]: 5 (5=80-100% damage)
- POST Application ECHCG herbicidal damage (five point scale) [3]: 5 (5=80-100% damage)
- POST Application IPOHE herbicidal damage (five point scale) [4]: 4 (4=60-79% damage)
- PRE Application SETFA herbicidal damage (five point scale) [5]: 4 (4=60-79% damage)
- PRE Application ALOMY herbicidal damage (five point scale) [6]: 1 (1=0-19% damage)
- POST Application ALOMY herbicidal damage (five point scale) [7]: 4 (4=60-79% damage)
- POST Application SETFA herbicidal damage (five point scale) [8]: 4 (4=60-79% damage)
- PRE Application IPOHE herbicidal damage (five point scale) [9]: 2 (2=20-39% damage)
- PRE Application ECHCG herbicidal damage (five point scale) [10]: 4 (4=60-79% damage)
- POST Application AMARE herbicidal damage (five point scale) [11]: 5 (5=80-100% damage)
- PRE Application AMARE herbicidal damage (five point scale) [12]: 3 (3=40-59% damage)

SMILES: Cc1c(-c2cnn(C3CC3)c(=O)c2O)ccc(S(C)(=O)=O)c1C1=NOCC1 [Compound 1.008, 2-cyclopropyl-5-[3-(4,5-dihydroisoxazol-3-yl)-2-methyl-4-methylsulfonyl-phenyl]-4-hydroxy-pyridazin-3-one]
- PRE Application SOLNI herbicidal damage (five point scale) [1]: 5 (5=80-100% damage)
- POST Application SOLNI herbicidal damage (five point scale) [2]: 5 (5=80-100% damage)
- POST Application ECHCG herbicidal damage (five point scale) [3]: 5 (5=80-100% damage)
- POST Application IPOHE herbicidal damage (five point scale) [4]: 5 (5=80-100% damage)
- PRE Application SETFA herbicidal damage (five point scale) [5]: 4 (4=60-79% damage)
- PRE Application ALOMY herbicidal damage (five point scale) [6]: 4 (4=60-79% damage)
- POST Application ALOMY herbicidal damage (five point scale) [7]: 5 (5=80-100% damage)
- POST Application SETFA herbicidal damage (five point scale) [8]: 5 (5=80-100% damage)
- PRE Application IPOHE herbicidal damage (five point scale) [9]: 3 (3=40-59% damage)
- PRE Application ECHCG herbicidal damage (five point scale) [10]: 5 (5=80-100% damage)
- POST Application AMARE herbicidal damage (five point scale) [11]: 5 (5=80-100% damage)
- PRE Application AMARE herbicidal damage (five point scale) [12]: 4 (4=60-79% damage)

SMILES: CCn1ncc(-c2c(Cl)ccc(Cl)c2Cl)c(O)c1=O [Compound 1.010]
- PRE Application SOLNI herbicidal damage (five point scale) [1]: 1 (1=0-19% damage)
- POST Application SOLNI herbicidal damage (five point scale) [2]: 4 (4=60-79% damage)
- POST Application ECHCG herbicidal damage (five point scale) [3]: 1 (1=0-19% damage)
- POST Application IPOHE herbicidal damage (five point scale) [4]: 4 (4=60-79% damage)
- PRE Application SETFA herbicidal damage (five point scale) [5]: 1 (1=0-19% damage)
- PRE Application ALOMY herbicidal damage (five point scale) [6]: 1 (1=0-19% damage)
- POST Application ALOMY herbicidal damage (five point scale) [7]: 1 (1=0-19% damage)
- POST Application SETFA herbicidal damage (five point scale) [8]: 1 (1=0-19% damage)
- PRE Application IPOHE herbicidal damage (five point scale) [9]: 1 (1=0-19% damage)
- PRE Application ECHCG herbicidal damage (five point scale) [10]: 1 (1=0-19% damage)
- POST Application AMARE herbicidal damage (five point scale) [11]: 2 (2=20-39% damage)
- PRE Application AMARE herbicidal damage (five point scale) [12]: 1 (1=0-19% damage)

SMILES: CCn1ncc(-c2c(Cl)cccc2Cl)c(O)c1=O [Compound 1.011]
- PRE Application SOLNI herbicidal damage (five point scale) [1]: 1 (1=0-19% damage)
- POST Application SOLNI herbicidal damage (five point scale) [2]: 4 (4=60-79% damage)
- POST Application ECHCG herbicidal damage (five point scale) [3]: 2 (2=20-39% damage)
- POST Application IPOHE herbicidal damage (five point scale) [4]: 2 (2=20-39% damage)
- PRE Application SETFA herbicidal damage (five point scale) [5]: 1 (1=0-19% damage)
- PRE Application ALOMY herbicidal damage (five point scale) [6]: 1 (1=0-19% damage)
- POST Application ALOMY herbicidal damage (five point scale) [7]: 2 (2=20-39% damage)
- POST Application SETFA herbicidal damage (five point scale) [8]: 2 (2=20-39% damage)
- PRE Application IPOHE herbicidal damage (five point scale) [9]: 1 (1=0-19% damage)
- PRE Application ECHCG herbicidal damage (five point scale) [10]: 1 (1=0-19% damage)
- POST Application AMARE herbicidal damage (five point scale) [11]: 4 (4=60-79% damage)
- PRE Application AMARE herbicidal damage (five point scale) [12]: 1 (1=0-19% damage)

SMILES: Cc1c(-c2cnn(C(C)C)c(=O)c2O)ccc(S(C)(=O)=O)c1C1=NOCC1 [Compound 1.012]
- PRE Application SOLNI herbicidal damage (five point scale) [1]: 5 (5=80-100% damage)
- POST Application SOLNI herbicidal damage (five point scale) [2]: 5 (5=80-100% damage)
- POST Application ECHCG herbicidal damage (five point scale) [3]: 5 (5=80-100% damage)
- POST Application IPOHE herbicidal damage (five point scale) [4]: 5 (5=80-100% damage)
- PRE Application SETFA herbicidal damage (five point scale) [5]: 4 (4=60-79% damage)
- PRE Application ALOMY herbicidal damage (five point scale) [6]: 4 (4=60-79% damage)
- POST Application ALOMY herbicidal damage (five point scale) [7]: 5 (5=80-100% damage)
- POST Application SETFA herbicidal damage (five point scale) [8]: 5 (5=80-100% damage)
- PRE Application IPOHE herbicidal damage (five point scale) [9]: 4 (4=60-79% damage)
- PRE Application ECHCG herbicidal damage (five point scale) [10]: 5 (5=80-100% damage)
- POST Application AMARE herbicidal damage (five point scale) [11]: 5 (5=80-100% damage)
- PRE Application AMARE herbicidal damage (five point scale) [12]: 5 (5=80-100% damage)

SMILES: CC(C)n1ncc(-c2ccc(C(F)(F)F)cc2S(C)(=O)=O)c(O)c1=O [Compound 1.013]
- PRE Application SOLNI herbicidal damage (five point scale) [1]: 5 (5=80-100% damage)
- POST Application SOLNI herbicidal damage (five point scale) [2]: 5 (5=80-100% damage)
- POST Application ECHCG herbicidal damage (five point scale) [3]: 5 (5=80-100% damage)
- POST Application IPOHE herbicidal damage (five point scale) [4]: 5 (5=80-100% damage)
- PRE Application SETFA herbicidal damage (five point scale) [5]: 5 (5=80-100% damage)
- PRE Application ALOMY herbicidal damage (five point scale) [6]: 5 (5=80-100% damage)
- POST Application ALOMY herbicidal damage (five point scale) [7]: 5 (5=80-100% damage)
- POST Application SETFA herbicidal damage (five point scale) [8]: 5 (5=80-100% damage)
- PRE Application IPOHE herbicidal damage (five point scale) [9]: 4 (4=60-79% damage)
- PRE Application ECHCG herbicidal damage (five point scale) [10]: 5 (5=80-100% damage)
- POST Application AMARE herbicidal damage (five point scale) [11]: 5 (5=80-100% damage)
- PRE Application AMARE herbicidal damage (five point scale) [12]: 5 (5=80-100% damage)

SMILES: CC(C)n1ncc(-c2ccc(S(C)(=O)=O)c(C3=NOCC3)c2Cl)c(O)c1=O [Compound 1.014]
- PRE Application SOLNI herbicidal damage (five point scale) [1]: 5 (5=80-100% damage)
- POST Application SOLNI herbicidal damage (five point scale) [2]: 5 (5=80-100% damage)
- POST Application ECHCG herbicidal damage (five point scale) [3]: 5 (5=80-100% damage)
- POST Application IPOHE herbicidal damage (five point scale) [4]: 5 (5=80-100% damage)
- PRE Application SETFA herbicidal damage (five point scale) [5]: 5 (5=80-100% damage)
- PRE Application ALOMY herbicidal damage (five point scale) [6]: 5 (5=80-100% damage)
- POST Application ALOMY herbicidal damage (five point scale) [7]: 5 (5=80-100% damage)
- POST Application SETFA herbicidal damage (five point scale) [8]: 5 (5=80-100% damage)
- PRE Application IPOHE herbicidal damage (five point scale) [9]: 2 (2=20-39% damage)
- PRE Application ECHCG herbicidal damage (five point scale) [10]: 5 (5=80-100% damage)
- POST Application AMARE herbicidal damage (five point scale) [11]: 5 (5=80-100% damage)
- PRE Application AMARE herbicidal damage (five point scale) [12]: 5 (5=80-100% damage)
